From article PMC5075699
Values joined by “and” are separate entries in the source; they are usually repeats but may differ in a detail not shown here. Equal values may be shown once.

Legend:
nontransgenic mice [1] = test: Contextual fear conditioning; conditions: ISRIB 2.5mpk, individual mice
[2] = ISRIB plasma levels in satellite mice (pharmacokinetic data); conditions: 2.5 hours post-administration, individual mouse
[3] = set-up: method as in Di Prisco et al., 2014; conditions: acute treatment; ref Di Prisco et al., 2014; cited from earlier work
rodents = test system: rodents; set-up: method as in Sidrauski et al., 2013; conditions: delivered immediately after a stimulus or behavioral task; ref Sidrauski et al., 2013; cited from earlier work
nontransgenic mice [4] = test: Pilot Morris water maze #1 (spatial learning and memory); conditions: for MWM training distance Trial*ISRIB (linear mixed effects regression model) / MWM training latency Trial*ISRIB (linear mixed effects regression model): vs vehicle; for MWM training latency Trial*ISRIB (linear mixed effects regression model): 6-7 month-old nontransgenic mice; for Distance / Latency: Fig 2A
[5] = 0.1 mpk i.p. after each training trial
[6] = 0.25 mpk i.p. after each training trial
[7] = 24-hour probe trial (Fig 2B), 0.1mpk, individual mice
[8] = 24-hour probe trial (Fig 2B), 0.25mpk, individual mice
[9] = 72-hour probe trial (Fig 2C), 0.1mpk, individual mice
[10] = 72-hour probe trial (Fig 2C), 0.25mpk, individual mice
[11] = ISRIB 0.1mpk, Trial 1, individual mice
[12] = ISRIB 0.1mpk, Trial 2, individual mice
[13] = ISRIB 0.1mpk, Trial 3, individual mice
[14] = ISRIB 0.1mpk, Trial 4, individual mice

Which Post-Shock (nontransgenic mice [1]; Fig 3A) does the source give for `O=C(COc1ccc(Cl)cc1)NC1CCC(NC(=O)COc2ccc(Cl)cc2)CC1` (stereo not shown) [ISRIB] here?
Its Post-Shock is 6.61 and 2.22 and 0 and 2.28 and 2.39 and 18.72 and 31.39 and 15.72 and 15.83 and 8.22 and 17.11 and 7.56 and 7 and 11.33 and 13.11 and 8.28 and 20.33 and 19.33 and 29.44 and 32.33 and 27.56.

What about the Pre-Shock (nontransgenic mice [1]; Fig 3A) of the same compound?
Its Pre-Shock is 1.67 and 0 and 0.97 and 2.33 and 0.86 and 33.64 and 1.83 and 1.44 and 1.08.

What about the “1st 4 min context” value (nontransgenic mice [1]; Fig 3B) of the same compound?
The value was 11.1 and 4.75 and 30.01 and 15.49 and 4.44 and 18.51 and 26.85 and 38.13 and 45.92 and 9.61 and 2.13 and 12.76 and 6.75 and 15.99 and 18.96 and 31.54 and 27.17 and 21.38 and 27.25 and 14.79 and 16.25 and 41.57 and 18.94 and 33.54 and 25.69 and 47.14 and 19.89 and 27.42 and 56.35 and 28.89.

And the “2nd 4 min context” value (nontransgenic mice [1]; Fig 3B)?
Its value is 31.29 and 5.25 and 33.13 and 30.94 and 0 and 19.46 and 29.43 and 31.87 and 22.86 and 6.96 and 10.43 and 9.1 and 5.42 and 17.46 and 22.21 and 24.07 and 43.26 and 31.68 and 31.22 and 19.13 and 25.14 and 47.79 and 41.86 and 24.76 and 22.15 and 38.53 and 12.88 and 14.39 and 38.49 and 10.29.

What about the 8 min context (nontransgenic mice [1]; Fig 3B) of the same compound?
The 8 min context was 21.54 and 5 and 31.79 and 23.22 and 2.22 and 18.99 and 28.14 and 35.24 and 34.55 and 8.28 and 6.28 and 10.93 and 6.08 and 16.72 and 20.58 and 27.86 and 35.22 and 26.54 and 29.26 and 16.96 and 20.81 and 44.68 and 30.75 and 29.15 and 24.19 and 43.22 and 16.38 and 20.9 and 47.8 and 19.59.

And the “Plasma concentration” value ([2]; Morris water maze #1 satellite mice, 0.25 mpk i.p. (1% DMSO/saline), 0.25 mg/kg)?
The value was 65.3 ng/mL and 71.9 ng/mL.

And the “Plasma concentration” value ([2]; Morris water maze #2 satellite mice, 0.25 mpk i.p. (1% DMSO/saline), 0.25 mg/kg)?
Its value is 66.6 ng/mL and 65.6 ng/mL.

And the “Plasma concentration” value ([2]; Morris water maze #2 satellite mice, 2.5 mpk i.p. (DMSO/PEG), 2.5 mg/kg)?
The value was 657 ng/mL and 348 ng/mL and 286 ng/mL.

What about the “effect on object-place learning” value [3] of the same compound?
Its value is “interfered with proper object-place learning”.

What about the “effect on spatial and fear memory” value (rodents) of the same compound?
Its value is “enhance spatial and fear memory”.

What about the “MWM training distance Trial*ISRIB (linear mixed effects regression model)” value (nontransgenic mice [4]; [5]) of the same compound?
The value was -35 cm/day.

And the “MWM training latency Trial*ISRIB (linear mixed effects regression model)” value (nontransgenic mice [4]; [5])?
Its value is −1.2 sec/day.

And the “MWM training distance Trial*ISRIB (linear mixed effects regression model)” value (nontransgenic mice [4]; [6])?
Its value is -36 cm/day.

And the “MWM training latency Trial*ISRIB (linear mixed effects regression model)” value (nontransgenic mice [4]; [6])?
Its value is −0.9 sec/day.

What about the “%Target Quadrant (percent time spent in target quadrant)” value (nontransgenic mice [4]; [7]) of the same compound?
Its value is 44.0932% and 16.8608% and 27.6206% and 29.7282% and 34.8863% and 38.4914% and 18.802% and 29.5064% and 21.1869% and 54.6312% and 23.8491% and 29.5618% and 18.2474% and 16.6944%.

What about the “Crossing Frequency (number of platform crossings)” value (nontransgenic mice [4]; [7]) of the same compound?
The value was 3 and 1 and 0 and 5 and 2.

And the “Latency to Target” value (nontransgenic mice [4]; [7])?
The value was 15.4154 and 14.3143 and 9.776 and 14.281 and 10.9109 and 23.8572 and 8.075 and 28.4618 and 6.173 and 49.9833 and 54.0207 and 5.439.

And the “%Target Quadrant (percent time spent in target quadrant)” value (nontransgenic mice [4]; [8])?
Its value is 41.7083% and 28.508% and 15.9179% and 23.35% and 35.33% and 30.3383% and 37.9922% and 36.7721% and 24.4038% and 36.5502% and 36.6057% and 35.6628% and 17.3045% and 11.2035% and 27.787%.

What about the “Crossing Frequency (number of platform crossings)” value (nontransgenic mice [4]; [8]) of the same compound?
The value was 4 and 1 and 2 and 3 and 5.

And the “Latency to Target” value (nontransgenic mice [4]; [8])?
The value was 12.5459 and 7.174 and 15.2486 and 19.2526 and 12.7795 and 12.9463 and 6.24 and 43.31 and 13.5135 and 13.6804 and 10.4438 and 8.842 and 6.84 and 29.0624 and 19.3861.

And the “%Target Quadrant (percent time spent in target quadrant)” value (nontransgenic mice [4]; [9])?
The value was 24.3483% and 20.0222% and 43.7604% and 8.4304% and 14.8641% and 36.883% and 28.6744% and 19.3012% and 32.6678% and 33.9434% and 13.6439% and 27.6206% and 18.9684% and 18.4692% and 26.345%.

And the “Latency to Target” value (nontransgenic mice [4]; [9])?
The value was 47.2473 and 25.4922 and 4.571 and 12.4458 and 24.0908 and 40.0734 and 23.29 and 28.6286 and 42.042 and 38.3383 and 5.506 and 17.9513.

And the “%Target Quadrant (percent time spent in target quadrant)” value (nontransgenic mice [4]; [10])?
The value was 45.4798% and 27.066% and 23.0727% and 47.7537% and 35.4409% and 31.5031% and 40.9318% and 46.4781% and 25.5685% and 36.6057% and 27.898% and 43.3167% and 22.3516% and 17.7482% and 21.6861%.

What about the “Latency to Target” value (nontransgenic mice [4]; [10]) of the same compound?
The value was 9.843 and 17.3507 and 7.741 and 43.2432 and 4.972 and 20.1201 and 23.7237 and 4.638 and 6.24 and 11.4448 and 27.027 and 19.4194.

And the “latency to target and crossing frequency vs vehicle” value (nontransgenic mice [4]; 72-hour probe trial, one-way ANOVA)?
Its value is “no significant improvement”.

And the Distance (nontransgenic mice [4]; [11])?
Its Distance is 2362.83 and 2250.62 and 2496.09 and 1947.39 and 1168.96 and 2236.97 and 2411.54 and 2035.59 and 1921.1 and 2456.98 and 2337.83 and 2068.76 and 2366.51 and 2250.12 and 2342.92.

And the Latency (nontransgenic mice [4]; [11])?
Its Latency is 120.12 and 115.716 and 120.153 (11×) and 70.7374 and 112.312.

And the Distance (nontransgenic mice [4]; [12])?
The Distance was 2488.72 and 412.271 and 2629.01 and 582.153 and 2113.12 and 2245.93 and 2084.31 and 208.443 and 322.031 and 2551.61 and 1958.47 and 2254.18 and 2157.45 and 1870.02 and 1903.66.

What about the Latency (nontransgenic mice [4]; [12]) of the same compound?
Its Latency is 120.153 (7×) and 20.1868 and 53.2199 and 101.501 and 119.653 and 16.016 and 18.5852 and 101.535 and 100.467.

What about the Distance (nontransgenic mice [4]; [13]) of the same compound?
The Distance was 96.0203 and 1493.55 and 655.096 and 2193.26 and 428.034 and 2346.49 and 668.274 and 682.153 and 2384.94 and 600.87 and 1974.12 and 1289.33 and 2210.56 and 216.348 and 165.502.

What about the Latency (nontransgenic mice [4]; [13]) of the same compound?
The Latency was 7.307 and 72.6059 and 29.1291 and 120.153 (6×) and 25.7925 and 43.31 and 33.8338 and 32.666 and 11.8785 and 10.01.

And the Distance (nontransgenic mice [4]; [14])?
The Distance was 1924.82 and 804.911 and 451.376 and 688.986 and 824.577 and 691.966 and 1226.74 and 1849.83 and 378.165 and 840.629.

What about the Latency (nontransgenic mice [4]; [14]) of the same compound?
The Latency was 96.0961 and 35.7357 and 20.6873 and 46.6467 and 38.0714 and 35.4354 and 120.153 and 97.4308 and 17.4174 and 44.2776.

And the “Crossing Frequency” value (nontransgenic mice [4]; ISRIB 0.1mpk, individual mice, Fig 2C)?
The value was 1 and 2 and 5 and 0 and 4 and 3.
